This is an account of results in publication PMC7589233 (The Journal of Physiology, 2020).

Structures are written as SMILES.

In assay [1] the target is T1, TRPV1 (Homo sapiens, UniProt Q8NER1). The assay is described as follows: whole-cell patch clamp, agonist current at […]. Format: cell-based. (In general: Patch clamp records ionic current or voltage across a cell membrane.)
Assay [2] concerns the target T1, TRPV1. Type of assay: cell-based.

T1 sequence (Q8NER1 whole entry): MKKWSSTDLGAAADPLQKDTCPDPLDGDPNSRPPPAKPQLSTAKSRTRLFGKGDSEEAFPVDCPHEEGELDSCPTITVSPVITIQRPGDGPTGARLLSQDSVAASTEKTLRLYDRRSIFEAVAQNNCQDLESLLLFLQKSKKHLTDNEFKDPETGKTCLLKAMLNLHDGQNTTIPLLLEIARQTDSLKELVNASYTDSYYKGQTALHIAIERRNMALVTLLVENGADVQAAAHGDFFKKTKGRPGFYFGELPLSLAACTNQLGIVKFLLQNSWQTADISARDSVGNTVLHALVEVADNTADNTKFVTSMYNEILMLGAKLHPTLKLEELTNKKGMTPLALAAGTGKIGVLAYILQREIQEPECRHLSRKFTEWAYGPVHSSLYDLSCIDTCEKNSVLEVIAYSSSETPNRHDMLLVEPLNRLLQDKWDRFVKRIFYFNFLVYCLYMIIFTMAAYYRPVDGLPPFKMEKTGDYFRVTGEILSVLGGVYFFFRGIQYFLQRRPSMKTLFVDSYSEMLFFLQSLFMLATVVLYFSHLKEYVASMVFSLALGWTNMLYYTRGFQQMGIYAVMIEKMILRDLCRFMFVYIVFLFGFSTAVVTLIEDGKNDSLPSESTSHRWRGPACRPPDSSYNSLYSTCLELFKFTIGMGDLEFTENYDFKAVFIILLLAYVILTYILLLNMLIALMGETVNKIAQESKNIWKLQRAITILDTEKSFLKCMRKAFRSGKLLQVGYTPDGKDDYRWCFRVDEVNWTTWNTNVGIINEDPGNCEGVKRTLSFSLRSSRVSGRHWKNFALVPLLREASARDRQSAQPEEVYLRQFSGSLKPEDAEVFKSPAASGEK

In the case of `CCCCCCCC/C=C\CCCCCCCC(=O)NCCc1ccc(O)c(O)c1` [OLDA, N-oleoyldopamine], the “whole-cell patch clamp, agonist current at 1 μM” value in assay [1] is recorded as “OLDA elicited whole‐cell currents that displayed similar kinetics to that observed with capsaicin”.
In general, IC50 refers to the concentration needed to halve the response being measured. In the case of `C=C1CC[C@H](O)C/C1=C/C=C1\CCC[C@]2(C)[C@@H]([C@H](C)CCCC(C)(C)O)CC[C@@H]12` [25OHD, 25-Hydroxyvitamin D], the IC50 in assay [2] came out at 34.3 ± 0.2 nM.
